The test system of the experiment is endotoxic mice (lipopolysaccharide endotoxin from E. coli at 60 mg/kg). Description: Survival of endotoxic mice following lethal endotoxin dose. In kind it is in vivo, Swiss-Webster mice. Conditions: endotoxin 60 mg/kg, 3 injections of 100 μg peptide at 5 minutes, 2 and 4 hours post endotoxin, alive at 0 hr: 10 (Tα1-N16-NH2 groups), 8 ([Glp]-Tα1, Tα1-Gly-NH2); for Number of Mice Alive Following Lethal Endotoxin Dose, 24 hr: endotoxin alone 4 of 10; for Number of Mice Alive Following Lethal Endotoxin Dose, 48 hr / Number of Mice Alive Following Lethal Endotoxin Dose, 72 hr / Number of Mice Alive Following Lethal Endotoxin Dose, 4 days / Number of Mice Alive Following Lethal Endotoxin Dose, 5 days: endotoxin alone 3 of 10. On the procedure:
Swiss-Webster mice were treated in five groups: endotoxic mice (mice injected with lipopolysaccharide endotoxin from E. coli at 60 mg/kg) which were otherwise untreated, and endotoxic mice treated with 3 injections of 100 μg Thymosin α1 -N16 Amide (Tα1 -N16 -NH2) treated in two groups, Pyroglutamyl-desacetyl Thymosin α1 ([glp]-Tα1), or Thymosin α1 -Gly Amide (Tα1 -gly-NH2) at 5 minutes, 2 and 4 hours post administration of the endotoxin.

Where “and” joins values, the source holds several entries; their conditions need not be identical. Equal entries are not always repeated.

Regarding “Ac-Ser-Asp-Ala-Ala-Val-Asp-Thr-Ser-Ser-Glu-Ile-Thr-Thr-Lys-Asp-Leu-Lys-Glu- Lys-Lys-Glu-Val-Val-Glu-Glu-Ala-Glu-Asn-Gly-NH2 (Ac-SDAAVDTSSEITTKDLKEKKEVVEEAENG-NH2) [Tα1 -Gly-NH2]”, the “Number of Mice Alive Following Lethal Endotoxin Dose, 24 hr” value came out at 8; the “Number of Mice Alive Following Lethal Endotoxin Dose, 48 hr” value was determined as 8; the “Number of Mice Alive Following Lethal Endotoxin Dose, 72 hr” value turned out to be 8; the “Number of Mice Alive Following Lethal Endotoxin Dose, 4 days” value turned out to be 8. In addition, the “Number of Mice Alive Following Lethal Endotoxin Dose, 5 days” value turned out to be 8.

As for “Ac-Ser-Asp-Ala-Ala-Val-Asp-Thr-Ser-Ser-Glu-Ile-Thr-Thr-Lys-Asp-Leu-NH2 (Ac-SDAAVDTSSEITTKDL-NH2) [Tα1 -N16 --NH2]”, the “Number of Mice Alive Following Lethal Endotoxin Dose, 24 hr” value is 5 and 8; the “Number of Mice Alive Following Lethal Endotoxin Dose, 48 hr” value is 4 and 8; the “Number of Mice Alive Following Lethal Endotoxin Dose, 72 hr” value was 4 and 7; the “Number of Mice Alive Following Lethal Endotoxin Dose, 4 days” value is 4 and 7. In addition, the “Number of Mice Alive Following Lethal Endotoxin Dose, 5 days” value is 4 and 7.
